Reference: patent publication US9908848B2, “Amide derivatives of lactam based N-acylethanolamine acid amidase (NAAA) inhibitors” (The Regents of the University of California, priority 2013, dated 2018)

Assays:
[1] = target: T1, human NAAA (Homo sapiens, UniProt Q02083); test: Fluorogenic h-NAAA assay; assay type: biochemical; settings: recombinant HEK-hNAAA preparation
T1 construct: made in house; host or cells: HEK293 cells, stably transfected; soluble fraction after freeze/thaw
T1 sequence (Q02083 29-359): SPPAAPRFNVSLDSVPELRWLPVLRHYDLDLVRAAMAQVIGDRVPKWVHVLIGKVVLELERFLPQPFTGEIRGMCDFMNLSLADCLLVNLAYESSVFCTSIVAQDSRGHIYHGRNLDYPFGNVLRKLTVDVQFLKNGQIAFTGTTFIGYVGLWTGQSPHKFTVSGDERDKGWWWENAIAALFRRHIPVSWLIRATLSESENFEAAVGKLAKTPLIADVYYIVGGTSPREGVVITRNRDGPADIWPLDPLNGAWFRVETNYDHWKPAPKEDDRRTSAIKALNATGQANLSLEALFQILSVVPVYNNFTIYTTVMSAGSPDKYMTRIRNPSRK
Description: Hek293 cells stably transfected with the human NAAA coding sequence cloned from a human spleen cDNA library were used as enzyme source. Recombinant HEK-hNAAA pellets were resuspended in homogenizing buffer, and sonicated. Samples were centrifuged at 800×g for 15 min at 4° C. and the supernatants were ultracentrifuged at 12,000×g for 30 min at 4° C. The pellets were resuspended in PBS pH 7.4 on ice and subjected to a freeze/thaw cycle at −80° C. (two freeze/thaw cycles at −80° C. for Examples 34-37). The suspension was finally centrifuged at 105,000×g for 1 h at 4° C. Protein concentration was measured and samples stored at −80° C. until use.
The assay was run in Optiplate 96-wells black plates, in a total reaction volume of 200 μL. NAAA protein preparation (4.0 μg for Examples except 34-37, which were 20.0 μg) was pre-incubated for 10 min with various concentrations of test compounds or vehicle control (5% DMSO) in 100 mM citrate/phosphate buffer (pH 4.5) containing 3.0 mM DTT, 0.1% Triton X-100, 0.05% BSA, 150 mM NaCl. N-(4-methyl-2-oxo-chromen-7-yl)-hexadecanamide was used as a substrate (5.0 μM) and the reaction carried over for 30 min at 37° C. The samples were then read in a Perkin Elmer Envision plate reader using an excitation wavelength of 360 nm and emission 460 nm. IC50 values were calculated by non-linear regression analysis of log [concentration]/inhibition curves using GraphPad Prism 5 (GraphPad Software Inc., CA—USA) applying a standard slope curve fitting.

[2] = target: T2, Rat AC (r-AC), Acid Ceramidase (Rattus norvegicus, UniProt Q6P7S1); test: Rat AC (r-AC) assay, UPLC/MS; assay type: biochemical; settings: read-out: r-AC UPLC/MS assay % inhib.
T2 construct: V5 (C); His (C); made in house; host or cells: HEK293 cells transfected with pEF6-rAC-V5/His, selected with G418; soluble fraction after freeze/thaw
T2 sequence (Q6P7S1 21-394): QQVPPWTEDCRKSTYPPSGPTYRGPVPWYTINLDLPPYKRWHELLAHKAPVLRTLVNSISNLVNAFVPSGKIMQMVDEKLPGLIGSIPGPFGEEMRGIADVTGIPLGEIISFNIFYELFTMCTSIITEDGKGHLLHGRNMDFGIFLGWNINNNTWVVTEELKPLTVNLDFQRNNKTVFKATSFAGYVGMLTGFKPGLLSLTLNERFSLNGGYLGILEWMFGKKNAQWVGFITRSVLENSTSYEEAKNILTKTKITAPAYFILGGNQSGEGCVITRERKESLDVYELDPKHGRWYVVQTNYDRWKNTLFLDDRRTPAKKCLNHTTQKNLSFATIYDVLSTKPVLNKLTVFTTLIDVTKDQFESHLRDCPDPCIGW
Description: The selectivity of selected compounds versus Acid Ceramidase (AC) was determined.
Rat AC (r-AC) was cloned from a brain cDNA library using primers based on the sequence obtained from the National Center for Biotechnology Information (NCBI) database: 5′rAC (5′-GACCATGCTGGGCCGTAGT-3′) (SEQ ID NO:1) and 3′rAC (5′-CCAGCCTATACAAGGGTCT-3′) (SEQ ID NO:2). The PCR (High Fidelity PCR Master, Roche) product was subcloned into a pEF6-V5/His vector (Invitrogen) to construct a mammalian expression vector encoding V5/His-tagged rat AC. HEK293 cells were transfected with pEF6-rAC-V5/His using Super-Fect reagent (Qiagen) and screened with G418 (0.3 mg/mL). Cells were suspended in 20 mM Tris HCl (pH 7.5) containing 0.32M sucrose, sonicated and centrifuged at 800×g for 15 min at 4° C. The supernatants were centrifuged again at 12,000×g for 30 min at 4° C. The pellets were suspended in phosphate-buffered saline (PBS) and subjected to 2 freeze-thaw cycles at −80° C. The suspensions were centrifuged at 105,000×g for 1 hour at 4° C. The supernatants containing recombinant AC were kept at −80° C. until use. Protein concentration was measured using the bicinchoninic acid (BCA) assay (Pierce). Recombinant rat AC (50 μg) was preincubated with inhibitors (final DMSO concentration 1%) in assay buffer (100 mM sodium phosphate, 0.1% Nonidet P-40, 150 mM NaCl, 3 mM DTT, 100 mM sodium citrate, pH 4.5) for 30 min at 37° C. Reactions were started by the addition of 100 μM N-lauroyl ceramide (Nu-Chek Prep, Elysian, Minn.) and carried on for 30 min at 37° C. Reactions were stopped by addition of a mixture of chloroform/methanol (2:1, vol/vol) containing 1 nmol of heptadecanoic acid (HDA; NuChek Prep). The organic phases were collected, dried under N2, and analyzed by LC-MS in the negative-ion mode using […] (HDA) as internal standard (m/z=199 for lauric acid, m/z=269 for HDA). HDA was eluted on an XDB Eclipse C18 column isocratically at 2.2 mL/min for 1 min with a solvent mixture of 95% methanol and 5% water, both containing 0.25% acetic acid and 5 mM ammonium acetate. The column temperature was 50° C. Electrospray ionization (ESI) was in the negative mode, capillary voltage as 4 kV, and fragmentor voltage was 100 V. N2 was used as drying gas at a flow rate of 13 L/min and a temperature of 350° C. Nebulizer pressure was set at 60 psi. We monitored […] in the selected-ion monitoring (SIM) mode using HDA as internal standard. Calibration curves were generated using commercial lauric acid (Nu-Chek Prep; m/z=199).

| Compound | IC50 [1] [nM] | inhibition at 1 µM [2] [%] |
| --- | --- | --- |
| CCCCCCCCCC(=O)N[C@H]1CNC1=O [Example 23, N-[(3S)-2-Oxoazetidin-3-yl]-decanamide] | 86 | 70 |
| O=C(CCCCCCC1CCCCC1)N[C@H]1CNC1=O [Example 30, 7-Cyclohexyl-N-[(3S)-2-oxoazetidin-3-yl]-heptanamide] | 210 | 45 |
